Values joined by “and” are separate entries in the source; they are usually repeats but may differ in a detail not shown here. Equal entries are not always repeated.
Tests used:
[1] = tested on: B. theta Δ1760 strain; test: Growth of Δ1760 (surface endo-levanase deletion) strain on levans from different sources; format: cell-based, Bacteroides thetaiotaomicron; conditions: minimal media, anaerobic, 37 °C, replicates 1-3, single wells
Protocol: Growth curves were performed in an Epoch microplate spectrometer (Biotek Instruments Ltd) with 96-well Costar culture plate (Sigma-Aldrich) inside an anaerobic cabinet at 37 °C (Don Whitley Scientific, A35 workstation). Media were inoculated 1:10 with bacterial cultures previously grown overnight in BHI. Final culture volumes of 200 µl were used, and each condition was performed in triplicate. Optical density at 600 nm was measured in each well at 30 min intervals.
In most cases, the levan used was from Erwinia herbicola (Sigma). For analysis of the growth of the Δ1760 strain, bacterial levans from Bacillus sp. (Montana Polysaccharides) and Zymomonas mobilis[64] (a kind gift from Prof. Dr. Yekta Göksunger, Ege University, Izmir, Turkey) were also used, as well as levan from Timothy grass (Megazyme) and in vitro synthesised levan. In vitro synthesised levan was made using Bacillus subtilis levansucrase incubated with 20% sucrose in PBS for 24 h at 37 °C. Proteinase K (100 µg/ml) was then added to remove the protein, before being precipitated out using 0.5% trichloroacetic acid final. The levan was then extensively dialysed against water and freeze dried.

[2] = target: T1, Bt1763 (SusC) TonB-dependent transporter of the Bacteroides thetaiotaomicron levan utilisation locus (Bacteroides thetaiotaomicron, UniProt Q8A6W3 26-1041); test: crystal structure; Bt1762-63 purified from B. theta outer membranes, in 0.4% C8E4; apo and with 2.5 mM β2,6 FOS; 0.15 M sodium formate, 0.1 M HEPES pH 7-7.5, 16-20% PEG 3350; conditions: both partners purified
T1 construct: Bt1763 (SusC), TonB-dependent transporter of the levan PUL, Bacteroides thetaiotaomicron VPI-5482; numbers count on: the mature protein; In closed states seen by cryo-EM the plug domain has no density; source: endogenous, B. thetaiotaomicron VPI-5482 (Bt1762-his strain) grown on MM fructose; outer membrane extracted with LDAO; purified with His-tagged Bt1762 (IMAC, SEC)
T1 sequence (looked up): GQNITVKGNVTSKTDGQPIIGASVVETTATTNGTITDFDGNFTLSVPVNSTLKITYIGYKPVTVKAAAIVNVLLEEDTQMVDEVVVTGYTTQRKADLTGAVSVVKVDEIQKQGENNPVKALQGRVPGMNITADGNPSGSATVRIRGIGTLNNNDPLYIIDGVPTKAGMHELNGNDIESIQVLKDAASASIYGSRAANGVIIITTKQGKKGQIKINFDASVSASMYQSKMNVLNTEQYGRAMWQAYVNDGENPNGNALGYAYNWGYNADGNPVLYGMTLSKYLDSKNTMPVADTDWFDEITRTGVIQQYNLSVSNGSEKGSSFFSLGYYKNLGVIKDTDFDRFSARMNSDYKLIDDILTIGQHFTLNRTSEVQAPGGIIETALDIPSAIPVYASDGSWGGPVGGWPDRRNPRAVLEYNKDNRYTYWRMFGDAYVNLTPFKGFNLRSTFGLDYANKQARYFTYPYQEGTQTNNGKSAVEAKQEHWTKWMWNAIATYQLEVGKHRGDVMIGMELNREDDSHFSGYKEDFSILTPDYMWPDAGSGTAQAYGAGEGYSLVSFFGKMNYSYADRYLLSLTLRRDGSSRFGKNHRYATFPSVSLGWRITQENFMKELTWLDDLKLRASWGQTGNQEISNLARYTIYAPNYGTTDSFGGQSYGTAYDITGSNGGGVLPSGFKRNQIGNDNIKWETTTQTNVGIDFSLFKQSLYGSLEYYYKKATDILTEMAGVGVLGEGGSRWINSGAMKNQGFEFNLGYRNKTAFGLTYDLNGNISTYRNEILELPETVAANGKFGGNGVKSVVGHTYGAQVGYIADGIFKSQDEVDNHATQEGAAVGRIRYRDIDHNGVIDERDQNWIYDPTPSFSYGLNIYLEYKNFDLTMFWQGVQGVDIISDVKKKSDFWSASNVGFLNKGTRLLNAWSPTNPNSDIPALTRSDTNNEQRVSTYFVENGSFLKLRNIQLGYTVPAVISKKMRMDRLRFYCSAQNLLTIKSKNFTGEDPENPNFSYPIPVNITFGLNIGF

[3] = target: the molecule itself; test: as above

For `O=C(CO)C(O)C(O)C(O)CO` (centres unmarked) [Frc], the “Optical density at 600 nm” value ([1]; time 00:00:00, carbon source 0.5 %) was 0.303 and 0.324 and 0.321 and 0.418 and 0.289 and 0.311 and 0.334 and 0.296 and 0.325, the “Optical density at 600 nm” value ([1]; time 00:30:00, carbon source 0.5 %) was 0.171 (2×) and 0.174 (2×) and 0.172 (2×) and 0.177 and 0.173 and 0.181 and the “Optical density at 600 nm” value ([1]; time 01:00:00, carbon source 0.5 %) was 0.178 (2×) and 0.179 (2×) and 0.177 (2×) and 0.18 (2×) and 0.182. The “Optical density at 600 nm” value ([1]; time 01:30:00, carbon source 0.5 %) was 0.186 and 0.189 (2×) and 0.187 (2×) and 0.188 (2×) and 0.184 and 0.19, the “Optical density at 600 nm” value ([1]; time 02:00:00, carbon source 0.5 %) was 0.194 and 0.197 and 0.196 (2×) and 0.199 (2×) and 0.191 and 0.202 and 0.198 and the “Optical density at 600 nm” value ([1]; time 02:30:00, carbon source 0.5 %) was 0.203 and 0.21 and 0.212 and 0.211 and 0.198 and 0.204 and 0.215 and 0.206 and 0.214. The “Optical density at 600 nm” value ([1]; time 03:00:00, carbon source 0.5 %) was 0.211 and 0.217 and 0.232 and 0.225 and 0.205 and 0.212 and 0.229 and 0.214 and 0.226, the “Optical density at 600 nm” value ([1]; time 03:30:00, carbon source 0.5 %) was 0.22 and 0.224 (2×) and 0.261 and 0.24 (2×) and 0.214 and 0.221 and 0.255 and the “Optical density at 600 nm” value ([1]; time 04:00:00, carbon source 0.5 %) was 0.228 and 0.23 (2×) and 0.304 and 0.261 (2×) and 0.22 and 0.234 and 0.284. The “Optical density at 600 nm” value ([1]; time 04:30:00, carbon source 0.5 %) was 0.233 and 0.24 and 0.355 and 0.279 and 0.223 and 0.252 and 0.313 and 0.238 and 0.283, the “Optical density at 600 nm” value ([1]; time 05:00:00, carbon source 0.5 %) was 0.238 and 0.259 and 0.442 and 0.309 and 0.227 and 0.278 and 0.351 and 0.243 and 0.306 and the “Optical density at 600 nm” value ([1]; time 05:30:00, carbon source 0.5 %) was 0.249.

B1: Bt1762 (SusD) of the Bacteroides thetaiotaomicron levan utilisation locus, with C-terminal His6 tag (natural protein, UniProt Q8A6W4 19-570, looked up)
chain: CDDFLDRQVPQGIVTGDQIASPEYVDNLVISAYAIWATGDDINSSFSLWNYDVRSDDCYKGGSGTEDGGVFNALEISKGINTTDWNINDIWKRLYQCITRANTALQSLDQMDEKTYPLKNQRIAEMRFLRGHAHFMLKQLFKKIVIVNDENMEPDAYNELSNTTYTNDEQWQKIADDFQFAYDNLPEVQIEKGRPAQAAAAAYLAKTYLYKAYRQDGADNALTGINEEDLKQVVKYTDPLIMAKGGYGLETDYSMNFLPQYENGAESVWAIQYSINDGTYNGNLNWGMGLTTPQILGCCDFHKPSQNLVNAFKTDSQGKPLFSTYDNENYEVATDNVDPRLFHTVGMPGFPYKYNEGYIIQKNDDWSRSKGLYGYYVSLKENVDPDCDCLKKGSYWASSLNHIVIRYADVLLMRAEALIQLNDGRITDAISLINEVRSRAAGSTMLIFNYKEDYGVNFKVTPYDLKAYAQDEAMKMLKWERRVEFGMESSRFFDLVRWGEAKDVINAYYVTEASRCSIYKNAGFTENKNEYLPVPFEQISASNGNYTQNFGW
modifications: lipid anchor (lipoprotein)
notes: numbers count on: the mature protein; His6 tag is chromosomal; also called SusD lid; WT (Bt1762-his strain); source: B. thetaiotaomicron VPI-5482 (Bt1762-his strain) grown on MM fructose; outer membrane extracted with LDAO; purified with Bt1763 (IMAC, SEC); not shown: His6, C-terminal, kept
B1: binds [2].

B2: Bt1762-Bt1763 SusCD complex (complex, Bacteroides thetaiotaomicron)
chain 1: CDDFLDRQVPQGIVTGDQIASPEYVDNLVISAYAIWATGDDINSSFSLWNYDVRSDDCYKGGSGTEDGGVFNALEISKGINTTDWNINDIWKRLYQCITRANTALQSLDQMDEKTYPLKNQRIAEMRFLRGHAHFMLKQLFKKIVIVNDENMEPDAYNELSNTTYTNDEQWQKIADDFQFAYDNLPEVQIEKGRPAQAAAAAYLAKTYLYKAYRQDGADNALTGINEEDLKQVVKYTDPLIMAKGGYGLETDYSMNFLPQYENGAESVWAIQYSINDGTYNGNLNWGMGLTTPQILGCCDFHKPSQNLVNAFKTDSQGKPLFSTYDNENYEVATDNVDPRLFHTVGMPGFPYKYNEGYIIQKNDDWSRSKGLYGYYVSLKENVDPDCDCLKKGSYWASSLNHIVIRYADVLLMRAEALIQLNDGRITDAISLINEVRSRAAGSTMLIFNYKEDYGVNFKVTPYDLKAYAQDEAMKMLKWERRVEFGMESSRFFDLVRWGEAKDVINAYYVTEASRCSIYKNAGFTENKNEYLPVPFEQISASNGNYTQNFGW
chain 2: GQNITVKGNVTSKTDGQPIIGASVVETTATTNGTITDFDGNFTLSVPVNSTLKITYIGYKPVTVKAAAIVNVLLEEDTQMVDEVVVTGYTTQRKADLTGAVSVVKVDEIQKQGENNPVKALQGRVPGMNITADGNPSGSATVRIRGIGTLNNNDPLYIIDGVPTKAGMHELNGNDIESIQVLKDAASASIYGSRAANGVIIITTKQGKKGQIKINFDASVSASMYQSKMNVLNTEQYGRAMWQAYVNDGENPNGNALGYAYNWGYNADGNPVLYGMTLSKYLDSKNTMPVADTDWFDEITRTGVIQQYNLSVSNGSEKGSSFFSLGYYKNLGVIKDTDFDRFSARMNSDYKLIDDILTIGQHFTLNRTSEVQAPGGIIETALDIPSAIPVYASDGSWGGPVGGWPDRRNPRAVLEYNKDNRYTYWRMFGDAYVNLTPFKGFNLRSTFGLDYANKQARYFTYPYQEGTQTNNGKSAVEAKQEHWTKWMWNAIATYQLEVGKHRGDVMIGMELNREDDSHFSGYKEDFSILTPDYMWPDAGSGTAQAYGAGEGYSLVSFFGKMNYSYADRYLLSLTLRRDGSSRFGKNHRYATFPSVSLGWRITQENFMKELTWLDDLKLRASWGQTGNQEISNLARYTIYAPNYGTTDSFGGQSYGTAYDITGSNGGGVLPSGFKRNQIGNDNIKWETTTQTNVGIDFSLFKQSLYGSLEYYYKKATDILTEMAGVGVLGEGGSRWINSGAMKNQGFEFNLGYRNKTAFGLTYDLNGNISTYRNEILELPETVAANGKFGGNGVKSVVGHTYGAQVGYIADGIFKSQDEVDNHATQEGAAVGRIRYRDIDHNGVIDERDQNWIYDPTPSFSYGLNIYLEYKNFDLTMFWQGVQGVDIISDVKKKSDFWSASNVGFLNKGTRLLNAWSPTNPNSDIPALTRSDTNNEQRVSTYFVENGSFLKLRNIQLGYTVPAVISKKMRMDRLRFYCSAQNLLTIKSKNFTGEDPENPNFSYPIPVNITFGLNIGF
modifications: lipid anchor (lipoprotein)
notes: Bt1762 (SusD), Bacteroides thetaiotaomicron VPI-5482; as m1; numbers count on: the mature protein; Bt1763 (SusC), Bacteroides thetaiotaomicron VPI-5482; as m2; One SusCD unit (one Bt1762, one Bt1763); two such units form the SusC2D2 dimer; also called Bt1762-63; BT1762-63; source: B. thetaiotaomicron VPI-5482 (Bt1762-his strain) grown on MM fructose; outer membrane extracted with LDAO; purified …
With B2 the “stoichiometry N” value [3] was 2.
